These results are taken from article PMC8755628 (Pharmacological research, 2021).

The target of the assay is MET (Homo sapiens, UniProt P08581). Nature of the assay: MET kinase assay. The format is biochemical.
Sequence of MET (P08581 25-307): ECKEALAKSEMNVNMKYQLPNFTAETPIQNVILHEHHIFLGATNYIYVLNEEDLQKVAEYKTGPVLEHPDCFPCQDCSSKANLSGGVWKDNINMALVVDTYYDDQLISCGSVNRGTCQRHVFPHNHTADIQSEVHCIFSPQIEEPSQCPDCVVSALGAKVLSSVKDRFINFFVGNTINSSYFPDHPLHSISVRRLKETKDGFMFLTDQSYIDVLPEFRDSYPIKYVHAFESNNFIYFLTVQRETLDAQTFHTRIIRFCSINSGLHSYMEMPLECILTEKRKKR
Sequence of MET (P08581 308-1390): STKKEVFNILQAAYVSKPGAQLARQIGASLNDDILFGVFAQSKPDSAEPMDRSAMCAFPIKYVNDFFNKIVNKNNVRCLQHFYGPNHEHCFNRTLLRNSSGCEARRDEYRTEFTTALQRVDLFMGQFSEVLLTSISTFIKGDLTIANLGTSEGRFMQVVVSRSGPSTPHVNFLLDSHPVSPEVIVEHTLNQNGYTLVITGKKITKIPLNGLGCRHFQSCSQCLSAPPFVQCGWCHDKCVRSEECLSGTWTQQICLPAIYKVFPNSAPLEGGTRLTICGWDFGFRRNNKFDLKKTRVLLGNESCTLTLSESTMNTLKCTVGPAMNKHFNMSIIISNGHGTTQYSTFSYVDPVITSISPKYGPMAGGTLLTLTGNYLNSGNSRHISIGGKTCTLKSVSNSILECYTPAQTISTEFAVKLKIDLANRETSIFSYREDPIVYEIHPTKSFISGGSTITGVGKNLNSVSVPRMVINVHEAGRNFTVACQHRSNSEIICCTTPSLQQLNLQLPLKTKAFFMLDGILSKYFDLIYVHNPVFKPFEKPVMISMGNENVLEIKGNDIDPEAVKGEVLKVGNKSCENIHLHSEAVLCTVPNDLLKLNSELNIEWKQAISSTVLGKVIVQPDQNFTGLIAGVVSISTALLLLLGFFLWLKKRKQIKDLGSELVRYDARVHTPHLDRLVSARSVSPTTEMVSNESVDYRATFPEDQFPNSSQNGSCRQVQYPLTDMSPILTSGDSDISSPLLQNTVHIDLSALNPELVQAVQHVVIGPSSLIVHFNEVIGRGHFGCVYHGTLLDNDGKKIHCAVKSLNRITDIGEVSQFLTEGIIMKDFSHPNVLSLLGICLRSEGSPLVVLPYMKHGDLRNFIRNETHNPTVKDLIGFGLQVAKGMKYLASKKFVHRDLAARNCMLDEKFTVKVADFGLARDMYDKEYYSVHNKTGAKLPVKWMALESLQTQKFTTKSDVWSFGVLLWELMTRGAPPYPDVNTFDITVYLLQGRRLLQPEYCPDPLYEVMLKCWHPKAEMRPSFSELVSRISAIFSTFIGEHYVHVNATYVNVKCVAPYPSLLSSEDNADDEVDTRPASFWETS

By IC50 is commonly meant the concentration at which inhibition is half-maximal. Read a high IC50 as weaker potency in that assay. With `COc1ccc2cc3[n+](cc2c1OC)CCc1cc2c(cc1-3)OCO2` [BBR, Berberine], 19.6 µM corresponded to half-maximal inhibition (IC50).
